Experimental data published in patent US7329661B2, “N-phenyl-3-pyrimidine-amine derivatives” (Novartis AG, priority 2000, dated 2008).

Tests used:
[1] = test system: certain cytochrome P450 enzymes; test: Cytochrome P450 inhibition in vitro; format: in vitro ADME, human
Excerpt: (§1) In order to evaluate the effect of the compounds of formula I on cytochromes P450 (CYPs), e.g. enzyme inhibition is routinely assessed by performing in vitro inhibition studies using cDNA-expressed enzymes or human liver microsomes (Parkinson, A., Toxicol. Pathol. 24, 45-57 [1996]). Specific drug marker substrate assays according to Tucker et al., Clin. Pharmacol. Ther. 70, 103-114 (2001) can be used to determine the 50% inhibition concentration (IC50) of a compound of formula I for the principal drug-metabolizing P450 enzymes such as e.g. CYP1A2, CYP2A6, CYP2B6, CYP2C8, CYP2C9, CYP2C19, CYP2D6, CYP2E1, CYP3A4/5 and CP4A9/11.
(§2) Inhibition constants Ki or IC50 values derived by these in vitro assays provide a measure for the inhibition capacity of the tested drug compound according to the ratio of drug concentration in plasma to the respective inhibition constant Ki, where a ratio of >1.0 results in a high risk, 1.0-0.1 in a medium risk, and <0.1 in a low risk of metabolic drug interaction.

[2] = test system: CYP3A4/5; test: Risk of metabolic drug interaction from in vitro P450 inhibition, CYP3A4/5; format: in vitro ADME, human; conditions: ratio of plasma concentration to Ki
Excerpt: as §1, §2

[3] = molecular target: CYP2D6 (Homo sapiens, UniProt P10635); test: Risk of metabolic drug interaction from in vitro P450 inhibition, CYP2D6; format: in vitro ADME; conditions: ratio of plasma concentration to Ki
Excerpt: as §1, §2

[4] = Human plasma level and half-life; format: in vivo

Chain of CYP2D6 (P10635 whole entry): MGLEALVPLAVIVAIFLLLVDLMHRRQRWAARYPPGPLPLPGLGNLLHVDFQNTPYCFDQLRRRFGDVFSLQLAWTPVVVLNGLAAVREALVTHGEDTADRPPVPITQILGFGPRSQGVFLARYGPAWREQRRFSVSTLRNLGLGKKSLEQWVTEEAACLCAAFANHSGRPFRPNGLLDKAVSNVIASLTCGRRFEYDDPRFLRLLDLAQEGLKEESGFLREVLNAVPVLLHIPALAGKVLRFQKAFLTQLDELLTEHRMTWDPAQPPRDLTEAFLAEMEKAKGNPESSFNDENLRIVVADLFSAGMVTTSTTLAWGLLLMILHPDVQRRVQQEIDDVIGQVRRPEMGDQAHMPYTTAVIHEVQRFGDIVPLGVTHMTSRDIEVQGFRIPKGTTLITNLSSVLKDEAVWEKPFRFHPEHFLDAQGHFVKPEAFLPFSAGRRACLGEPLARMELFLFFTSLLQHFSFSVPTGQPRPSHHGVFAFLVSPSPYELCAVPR

| Structure (SMILES) | melting point | inhibition of certain cytochrome P450 enzymes compared with STI571 [1] | risk of drug-drug interactions compared with STI571 [2] | risk of drug-drug interactions compared with STI571 [3] | half-life compared with STI571 [4] |
| --- | --- | --- | --- | --- | --- |
| CCN1CCN(Cc2ccc(C(=O)Nc3ccc(C)c(Nc4nccc(-c5cccnc5)n4)c3)cc2)CC1 [Example 1, 4-(4-ethyl-piperazin-1-ylmethyl)-N-[4-methyl-3-(4-pyridin-3-yl-pyrimidin-2-ylamino)-phenyl]-benzamide] | 209.5 to 210.5 °C |  |  |  |  |
| Cc1ccc(NC(=O)c2ccc(CN3CCNCC3)cc2)cc1Nc1nccc(-c2cccnc2)n1 [Example 9, N-[4-methyl-3-(4-pyridin-3-yl-pyrimidin-2-ylamino)-phenyl]-4-piperazin-1-ylmethyl-benzamide] |  | less inhibition | much lower risk | much lower risk | somewhat longer than that of STI571 |
| CS(=O)(=O)O.Cc1ccc(NC(=O)c2ccc(CN3CCNCC3)cc2)cc1Nc1nccc(-c2cccnc2)n1 [Example 10, N-[4-methyl-3-(4-pyridin-3-yl-pyrimidin-2-ylamino)-phenyl]-4-piperazin-1-ylmethyl-benzamide methanesulfonate] | 242 to 245 °C |  |  |  |  |
